The results in this text go back to ChEMBL document CHEMBL4340541, “Synthesis of andrographolide analogues and their neuroprotection and neurite outgrowth-promoting activities” (Bioorg Med Chem, 2019).

Activity calls are given as the source filed them. The rule behind the calls is not given here.

For data set [1], the system named is BV-2. Put plainly: Antiinflammatory activity in mouse BV2 cells assessed as reduction in LPS-induced NO production at 20 uM incubated for 24 hrs by Griess method. It is filed as functional. The settings on record: for inhibition at 20 µM: BV-2, 24 h. A general note: Nitrite, measured by Griess reagent, commonly stands in for NO production.
Data set [2] in a line: Lipophilicity, log P of the compound. It is filed as physicochemical. The note with it: octanol/water.
Data set [3] relates to PC-12. The experiment in a line: Induction of neurite outgrowth in NGF-induced rat PC12 cells assessed as neurite bearing cells at 20 uM cotreated with 20 ng/ml NGF incubated for 48 hrs by light microscopy. Format: functional.
For data set [4], the system named is PC-12. The experiment in a line: Neuroprotective activity against 6-OHDA -induced toxicity in rat PC12 cells assessed as increase in cell viability at 20 uM pretreated for 24 hrs followed by 6-OHDA challenge and measured after 24 hrs by MTT assay. Format: functional, cell-based. For orientation: Tetrazolium dyes change colour on reduction, which living cells bring about.

The test system of data set [5] is PC-12. The experiment in a line: Neuroprotective activity against H2O2-induced toxicity in rat PC12 cells assessed as increase in cell viability at 20 uM pretreated for 24 hrs followed by H2O2 challenge and measured after 24 hrs by MTT assay. It is filed as functional, cell-based.
For data set [6], the system named is BV-2. The experiment in a line: Cytotoxicity in mouse BV2 cells assessed as reduction in cell viability. It is filed as cell-based.
For data set [7], the system named is PC-12. Put plainly: Induction of neurite outgrowth in NGF-induced rat PC12 cells assessed as neurite bearing cells cotreated with 20 ng/ml NGF incubated for 48 hrs by light microscopy. It is filed as functional, cell-based.
Data set [8] concerns PC-12. The experiment in a line: Induction of neurite outgrowth in NGF-induced rat PC12 cells assessed as neurite bearing cells at 20 uM cotreated with 20 ng/ml NGF incubated for 48 hrs by methylene blue staining based light microscopy. Format: functional.
In data set [9] the test system is PC-12. The experiment in a line: Induction of neurite outgrowth in rat PC12 cells assessed as neurite bearing cells in absence of 20 ng/ml NGF incubated for 48 hrs by light microscopy. Format: functional, cell-based.
Data set [10] has as its system PC-12. The experiment in a line: Neuroprotective activity against 6-OHDA -induced toxicity in rat PC12 cells assessed as increase in cell viability at 10 uM pretreated for 24 hrs followed by 6-OHDA challenge and measured after 24 hrs by MTT assay. Format: functional, cell-based.
In data set [11] the test system is PC-12. Put plainly: Neuroprotective activity against H2O2-induced toxicity in rat PC12 cells assessed as increase in cell viability at 10 uM pretreated for 24 hrs followed by H2O2 challenge and measured after 24 hrs by MTT assay. It is filed as functional, cell-based.
In data set [12] the test system is BV-2. The experiment in a line: Antiinflammatory activity in mouse BV2 cells assessed as reduction in LPS-induced NO production incubated for 24 hrs by Griess method. Format: functional, cell-based.
For data set [13], the system named is BV-2. The experiment in a line: Antiinflammatory activity in LPS induced mouse BV2 cells assessed as reduction in TNFalpha incubated for 6 hrs by ELISA method. It is filed as functional, cell-based. In general terms: In an ELISA, binding on a coated surface is turned into a signal by an enzyme label.
Data set [14] concerns BV-2. The experiment in a line: Antiinflammatory activity in LPS induced mouse BV2 cells assessed as reduction in iNOS expression at 20 uM incubated for 24 hrs by DAPI based fluorescence microscopic method. It is filed as functional, cell-based.
In data set [15] the test system is BV-2. Put plainly: Neuroprotective activity against microglia-conditioned medium-induced cytotoxicity in rat PC12 cells exposed to conditioned medium derived from 24 hrs compound pre-treated mouse BV2 cells assessed as increase in cell viability at 5 to 20 uM by MTT assay. Format: functional, cell-based.
Data set [16] deals with BV-2. Put plainly: Antiinflammatory activity in LPS-induced mouse BV2 cells assessed as reduction in iNOS mRNA expression at 20 uM incubated for 24 hrs by RT-PCR analysis method. Format: functional, cell-based.
For data set [17], the system named is BV-2. Put plainly: Antiinflammatory activity in LPS induced mouse BV2 cells assessed as reduction in IL-6 incubated for 24 hrs by ELISA method. Format: functional, cell-based.
Data set [18] relates to BV-2. The experiment in a line: Neuroprotective activity against microglia-conditioned medium-induced cytotoxicity in rat PC12 cells exposed to conditioned medium derived from mouse BV2 cells assessed as increase in cell viability at 5 to 20 uM by MTT assay. It is filed as functional, cell-based.
Data set [19] deals with BV-2. The experiment in a line: Neuroprotective activity against microglia-conditioned medium-induced cytotoxicity in rat PC12 cells co-cultred with mouse BV2 cells assessed as increase in cell viability at 5 to 20 uM incubated for 4 hrs by MTT assay. Format: functional, cell-based.
Data set [20] deals with PC-12. The experiment in a line: Induction of neurite outgrowth in NGF-induced rat PC12 cells assessed as neurite bearing cells at 5 to 10 uM cotreated with 20 ng/ml NGF incubated for 48 hrs by light microscopy. It is filed as functional, cell-based.
In data set [21] the test system is BV-2. The experiment in a line: Antiinflammatory activity in mouse BV2 cells assessed as reduction in LPS-induced NO production at 1 uM incubated for 24 hrs by Griess method relative to control. Format: functional. The settings on record: BV-2, 24 h.
Data set [22] relates to PC-12. Put plainly: Cytotoxicity against rat PC12 cells assessed as reduction in cell viability incubated for 48 hrs. Format: cell-based. The settings on record: pc-12, 48 h.

By inhibition is commonly meant the relative decrease from the control value, in per cent. In general, logP refers to the decadic logarithm of the partition coefficient of the neutral form, usually between octanol and water.

For `C=C1CC[C@@H]2[C@](C)(COC(C)=O)[C@H](OC(C)=O)CC[C@@]2(C)[C@@H]1CCC1=CCOC1=O`, the inhibition entry with BV-2 [1] was “Active”. In [2] (read-out: logP), the logP was determined as 4.02. Also, the outcome in the data set on PC-12 [3], in the data set with PC-12 [4] and in the data set on PC-12 [5] was inactive. The Activity entry in the data set with BV-2 [6] is listed as “Non-Toxic”.

With `C=C1CC[C@@H]2[C@](C)(CO[C@@H]3O[C@H](CO)[C@@H](O)[C@H](O)[C@H]3O)CCC[C@@]2(C)[C@@H]1CCC1=CCOC1=O` [NEOANDROGRAPHOLIDE], the results for the Activity entry with PC-12 [7], with PC-12 [8] and in the data set on BV-2 [6] were “Dose-dependent effect”, 21.5% and “Non-Toxic”, respectively. Moreover, the inhibition result in the data set on BV-2 [1] was “inactive”. Moreover, the log partition coefficient (logP) in [2] (read-out: logP) worked out at 3.07. For the same molecule, the outcome in the data set on PC-12 [4] and in the data set with PC-12 [5] was inactive. For the same molecule, the result in the data set with PC-12 [9] was Active.

On to `C[C@@]1(CO)[C@H](O)CC[C@@]2(C)C3CC(C4=CCOC4=O)O[C@]3(C)CC[C@H]12` (stereo partly specified), for which, in the data set on BV-2 [1], the inhibition entry was “inactive”. Further, the result with PC-12 [10], in the data set on PC-12 [11], in the data set on PC-12 [4] and in the data set with PC-12 [5] was Active. The log partition coefficient (logP) in data set [2] (read-out: logP) turned out to be 2.16. For the same molecule, the result in the data set with PC-12 [3] was inactive. Also, the Activity result in the data set on BV-2 [6] is on record as “Non-Toxic”.

Turning to `C=C1CC[C@@H]2[C@](C)(CO)[C@H](O)CC[C@@]2(C)[C@@H]1CCC1=CCOC1=O` [DEOXYANDROGRAPHOLIDE], the inhibition entry with BV-2 [1] is “inactive”. In addition, the logP in [2] (read-out: logP) came out at 3.43. The result in the data set on PC-12 [3], with PC-12 [4] and in the data set with PC-12 [5] was inactive. The Activity result in the data set with BV-2 [6] was “Non-Toxic”.

For `C=C1CC[C@@H]2[C@](C)(COC(C)=O)[C@H](OC(C)=O)CC[C@@]2(C)[C@@H]1CCC1C(=O)OC[C@H]1OC(C)=O` (stereo partly specified), the inhibition entry in the data set on BV-2 [1] is “Active”. Further, in data set [2] (read-out: logP), the log partition coefficient (logP) came to 3.71. For the same molecule, the result with PC-12 [3], with PC-12 [4] and in the data set on PC-12 [5] was inactive. Also, the Activity result in the data set with BV-2 [6] is given as “Non-Toxic”.

As to `CC1=C(CCC2=CCOC2=O)[C@]2(C)CC[C@@H](O)[C@@](C)(CO)[C@H]2CC1`, the Activity result was “Dose-dependent effect” with PC-12 [7], 31.2% in the data set with PC-12 [8] and “Non-Toxic” with BV-2 [6]. The inhibition result with BV-2 [1] was “inactive”. In [2] (read-out: logP), the logP was 2.9. Also, the result with PC-12 [3] and in the data set on PC-12 [9] was Active. The result with PC-12 [4] and in the data set on PC-12 [5] was inactive.

Turning to `C=C1CC[C@@H]2[C@](C)(CO)[C@H](O)CC[C@@]2(C)[C@@H]1CCC1C(=O)OC[C@H]1O` (stereo partly specified), in the data set with BV-2 [1], the inhibition entry was “inactive”. In addition, the logP in data set [2] (read-out: logP) is 2.54. Moreover, the result in the data set with PC-12 [3], in the data set on PC-12 [4] and in the data set on PC-12 [5] was inactive. For the same molecule, the Activity entry in the data set with BV-2 [6] is “Non-Toxic”.

On to `C=C1CC[C@@H]2[C@](C)(COC(C)=O)[C@H](OC(C)=O)CC[C@@]2(C)[C@@H]1/C=C/C1=CCOC1=O`, for which the inhibition entry with BV-2 [1] is “Active”. Moreover, the logP in data set [2] (read-out: logP) worked out at 3.83. The outcome in the data set with PC-12 [3], in the data set on PC-12 [4] and in the data set with PC-12 [5] was inactive. For the same molecule, in the data set with BV-2 [6], the Activity entry was “Non-Toxic”.

Regarding `C=C1CC[C@@H]2[C@](C)(CO)[C@H](O)CC[C@@]2(C)[C@@H]1C/C=C1/C(=O)OC[C@H]1O` [ANDROGRAPHOLIDE], in the data set with BV-2 [1], the inhibition at 20 µM was found to be 76.7%. For the same molecule, the result with PC-12 [3] was Active.

On to `C=C1CC[C@@H]2[C@](C)(CO)[C@H](O)CC[C@@]2(C)[C@@H]1/C=C/C1=CCOC1=O`, for which the Activity result with PC-12 [7] is “Dose-dependent effect”; with PC-12 [8], 18.6%; with PC-12 [3], “<=16.1%”; in the data set on BV-2 [6], “Non-Toxic”. Moreover, the inhibition entry with BV-2 [1] was “inactive”. Also, in data set [2], the logP is given as 3.23. The result in the data set on PC-12 [4] and in the data set on PC-12 [5] was inactive. The result in the data set with PC-12 [9] was Active.

For `C=C1CC[C@@H]2[C@](C)(CO)[C@H](O)CC[C@@]2(C)[C@@H]1C/C=C1\C=COC1=O`, the inhibition entry in the data set with BV-2 [1] was “inactive”. In addition, the logP in [2] (read-out: logP) came out at 3.28. Further, the outcome in the data set with PC-12 [3], with PC-12 [4] and in the data set on PC-12 [5] was inactive. In addition, the Activity result with BV-2 [6] is “Non-Toxic”.

As for `C=C1CC[C@@H]2[C@](C)(COC(C)=O)[C@H](OC(C)=O)CC[C@@]2(C)[C@@H]1C/C=C1\C=COC1=O`, the inhibition entry in the data set on BV-2 [12] is “Dose-dependent effect”. Also, the Activity entry in the data set with BV-2 [13] is “Dose-dependent effect”; with BV-2 [17], “Dose-dependent effect”; in the data set on BV-2 [6] it was “Non-Toxic”. For the same molecule, the inhibition at 20 µM with BV-2 [1] was determined as 78%. Also, in data set [2] (read-out: logP), the logP was 3.87. Also, the result in the data set with PC-12 [3], in the data set with PC-12 [4], in the data set with PC-12 [5] and in the data set on BV-2 [18] was inactive. The outcome with BV-2 [14], in the data set on BV-2 [15] and in the data set on BV-2 [16] was Active.

Regarding `CC(=O)OC[C@@]1(C)[C@H]2CCC(C)=C(C[C@H](OC(C)=O)C3=CCOC3=O)[C@]2(C)CC[C@H]1OC(C)=O`, the inhibition result in the data set with BV-2 [12] was “Dose-dependent effect”. In addition, the Activity entry in the data set with BV-2 [13] was “Dose-dependent effect”; in the data set on BV-2 [17], “Dose-dependent effect”; in the data set with BV-2 [6], “Non-Toxic”; in the data set on PC-12 [22], “Toxic”. Besides, in the data set with BV-2 [1], the inhibition at 20 µM amounted to 95.7%. Further, the logP in data set [2] (read-out: logP) amounted to 2.96. Besides, the outcome with BV-2 [14], in the data set with PC-12 [4], with BV-2 [15], with BV-2 [19], in the data set with PC-12 [5] and with BV-2 [16] was Active. Further, the outcome in the data set on PC-12 [20] and in the data set with BV-2 [18] was inactive. Moreover, the inhibition at 1 µM with BV-2 [21] was 34.4%.
